Each structure is given as a SMILES string. Some results are limits rather than exact numbers.

The values below come from PMC5390772 (Neuropharmacology, 2017).

One assay concerns α7 nACh receptor Q114C. In kind it is binding, chick. Here is the method:
(§1) Mutagenesis was performed using the QuikChange method (Agilent Technologies Inc., CA, USA) to substitute amino acids throughout each of the binding loops A – F (Fig. 1). The α7 nACh-5-HT3 subunit cDNA was as described by Bertrand ([Eiselé et al., 1993]) and was cloned into pcDNA3.1 for expression in HEK293 cells. Human 5-HT3A cDNA (accession number: P46098) and mouse 5-HT3A cDNA (Q6J1J7) were cloned into the same vector. Cells were transiently transfected with this cDNA using either polyethyleneimine (PEI: 25 kDa, linear, powder, Polysciences Inc., Eppelheim, Germany) or Lipofectamine 2000 (Life Technologies, CA, USA) according to the manufacturer's instructions. 30 μl of PEI (1 mg ml^−1), 5 μg cDNA and 1 ml DMEM/F12 were incubated for 10 min at room temperature, added drop wise to a 90 mm plate of 70–80% confluent HEK293 cells, and incubated for 2–3 days before use.
(§2) Human embryonic kidney (HEK) 293 cells were grown on 90 mm round tissue culture plates as monolayers in DMEM/F12 (Life Technologies) supplemented with 10% fetal bovine serum (FBS; Sigma Aldrich) at 37 °C in a moist atmosphere containing 5% CO2.
(§3) Transfected HEK 293 cells were scraped into 0.6 ml of ice-cold 10 mM HEPES buffer (pH 7.4) and stored frozen. After thawing, they were washed with HEPES buffer, homogenised by passage through a 21 G needle, and 50 μg of cell suspension incubated in 0.5 ml HEPES buffer containing [^3H]epibatidine (55.8 Ci/mmol, Waltham, MA). Non-specific binding was determined using 300 μM (−)-nicotine. Equilibrium reactions were incubated on ice for at least 1 h. Incubations were terminated by vacuum filtration onto Whatman GF/B filters wetted with 0.3% polyethyleneimine, followed by two rapid washes with 2.5 ml ice cold buffer. Radioactivity was determined by scintillation in Ultima Gold XR (Perkin Elmer) using a Tri-Carb 2100 TR (PerkinElmer) scintillation counter. Final counts were monitored to ensure that binding never exceeded 10% of the added concentrations of radioligands.
(§4) All data were analysed using GraphPad Prism v5. Individual saturation binding experiments were fitted to Eq. (1):(1) […] where Bmax is maximum binding at equilibrium, Kd is the equilibrium dissociation constant and [L] is the free concentration of radioligand. Values from individual experiments were averaged to yield the mean ± sem. Affinities were compared using 1-way ANOVA and a Dunnett's Post-Test.

The target in assay [1] is T1, human 5-HT3 receptors (Homo sapiens, UniProt P46098).
T1 construct: expressed in transfected cells; host or cells: HEK293
The assay can be described thus: biochemical. In kind it is binding. As to the method:
as §1
(§5) Transfected HEK 293 cells were scraped into 0.6 ml of ice-cold 10 mM HEPES buffer (pH 7.4) and stored frozen. […] Non-specific binding was determined using 300 μM (−)-nicotine. […] Radioactivity was determined by scintillation in Ultima Gold XR (Perkin Elmer) using a Tri-Carb 2100 TR (PerkinElmer) scintillation counter. Final counts were monitored to ensure that binding never exceeded 10% of the added concentrations of radioligands. […]

Assay [2] deals with T2, mouse 5-HT3 receptors (Mus musculus, UniProt P23979).
T2 construct: expressed in transfected cells; host or cells: HEK293
The assay can be described thus: biochemical. In kind it is binding. Here is the method: as §1, §5
T2 sequence (P23979 24-483 isoform P23979-2 limits assumed): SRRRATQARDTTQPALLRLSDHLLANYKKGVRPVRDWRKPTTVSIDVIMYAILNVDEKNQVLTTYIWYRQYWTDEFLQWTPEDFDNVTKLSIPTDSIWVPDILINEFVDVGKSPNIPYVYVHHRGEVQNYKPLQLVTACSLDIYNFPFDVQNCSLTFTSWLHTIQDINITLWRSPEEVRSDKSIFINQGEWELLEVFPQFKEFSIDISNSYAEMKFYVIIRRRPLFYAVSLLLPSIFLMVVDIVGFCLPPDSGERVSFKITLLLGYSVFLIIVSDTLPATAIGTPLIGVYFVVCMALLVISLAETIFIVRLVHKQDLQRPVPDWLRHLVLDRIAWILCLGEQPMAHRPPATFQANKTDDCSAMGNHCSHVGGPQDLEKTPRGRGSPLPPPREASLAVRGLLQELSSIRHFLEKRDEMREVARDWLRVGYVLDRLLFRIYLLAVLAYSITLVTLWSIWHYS

Another assay has as its system α7 nACh receptors W145F. Also on record: method as in Li et al., 2011. Conditions: W145F ref Li et al., 2011; cited from earlier work.
A further assay has as its system α7 nACh receptors Y184F. Also on record: method as in Li et al., 2011. Conditions: Y184F ref Li et al., 2011; cited from earlier work.
A further assay concerns α7 nACh receptors W53F. Also on record: method as in Li et al., 2011; Van Arnam et al., 2013. Conditions: W53F ref Li et al., 2011; Van Arnam et al., 2013; cited from earlier work.
Another assay concerns the target α7 nACh receptors. Also on record: method as in Li et al., 2011; Van Arnam et al., 2013. Conditions: before W53 substitution ref Li et al., 2011; Van Arnam et al., 2013; cited from earlier work.
Another assay concerns the target α7 nACh receptors W53A. Also on record: method as in Li et al., 2011; Van Arnam et al., 2013. Conditions: W53 substituted by Ala ref Li et al., 2011; Van Arnam et al., 2013; cited from earlier work.
A further assay relates to α7 nACh receptors L116A. Also noted: method as in Blum et al., 2013; Van Arnam et al., 2013. Conditions: L116 Ala mutation ref Blum et al., 2013, Van Arnam et al.; cited from earlier work.
A further assay addresses α7 nACh receptor N104C. Also noted: species or system chick. Conditions: no saturable binding. Here is the method: as §1, §2, §3, §4
The next assay addresses α7 nACh receptor W145C. Also noted: species or system chick. Conditions: no saturable binding. As to the method:
as §1, §2, §3, §4

A further assay deals with α7 nACh receptor W53C. Also on record: species or system chick. Conditions: no saturable binding. Here is the method: as §1, §2, §3, §4
The next assay concerns the target α7 nACh receptor Y184C. Also on record: species or system chick. Conditions: no saturable binding. Here is the method: as §1, §2, §3, §4
For another assay, the target named is α7 nACh receptor Y191C. Also noted: species or system chick. Conditions: no saturable binding. Here is the method: as §1, §2, §3, §4
In a further assay the target is α7 nACh receptor Y91C. Also noted: species or system chick. Conditions: no saturable binding. As to the method: as §1, §2, §3, §4
Assay [3] has as its target T3, wild type α7 nACh receptors (UniProt P22770+P23979).
T3 construct: directed against the 5-HT3 region of the chimaeric receptor; expressed in transfected cells; host or cells: HEK293
In kind it is binding, chick. Here is the method: as §1, §2, §3, §4

Assay [4] has as its target T4, wild type α7 nACh receptors (UniProt P22770+P23979, M226I/T225I).
T4 construct: directed against the 5-HT3 region of the chimaeric receptor; expressed in transfected cells; host or cells: HEK293
In kind it is binding, chick. Conditions: α7 nACh-5-HT3 chimaera in HEK 293 cells. Here is the method:
as §1, §2, §3, §4

In another assay the target is α7 nACh receptor C186A. In kind it is binding, chick. As to the method: as §1, §2, §3, §4
The target of the next assay is α7 nACh receptor C187A. In kind it is binding, chick. Here is the method:
as §1, §2, §3, §4

The target in a further assay is α7 nACh receptor D160C. In kind it is binding, chick. Here is the method: as §1, §2, §3, §4
Another assay addresses α7 nACh receptor L106C. In kind it is binding, chick. As to the method:
as §1, §2, §3, §4

The target in another assay is α7 nACh receptor L116C. In kind it is binding, chick. As to the method: as §1, §2, §3, §4
The target of another assay is α7 nACh receptor Q55C. In kind it is binding, chick. Here is the method: as §1, §2, §3, §4
The next assay has as its target α7 nACh receptor S144C. In kind it is binding, chick. Here is the method:
as §1, §2, §3, §4

A further assay addresses α7 nACh receptor S162C. In kind it is binding, chick. Here is the method: as §1, §2, §3, §4
A further assay deals with α7 nACh receptor T146C. In kind it is binding, chick. Here is the method: as §1, §2, §3, §4
Assay [5] concerns the target T1, human 5-HT3 receptors. In kind it is binding. Conditions: concentration of up to 25 nM. Here is the method:
as §1, §5

Assay [6] deals with mouse 5-HT3 receptors (Mus musculus, UniProt P23979). In kind it is binding. Conditions: concentration of up to 25 nM. As to the method:
as §1, §5
Target sequence in this assay (P23979 24-246 limits assumed): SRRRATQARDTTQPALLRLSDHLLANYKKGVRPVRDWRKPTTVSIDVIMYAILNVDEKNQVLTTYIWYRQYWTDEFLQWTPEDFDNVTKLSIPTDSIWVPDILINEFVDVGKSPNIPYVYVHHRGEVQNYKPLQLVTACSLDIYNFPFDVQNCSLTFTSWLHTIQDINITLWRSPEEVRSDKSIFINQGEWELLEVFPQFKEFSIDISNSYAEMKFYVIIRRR

T1 sequence (P46098 24-478): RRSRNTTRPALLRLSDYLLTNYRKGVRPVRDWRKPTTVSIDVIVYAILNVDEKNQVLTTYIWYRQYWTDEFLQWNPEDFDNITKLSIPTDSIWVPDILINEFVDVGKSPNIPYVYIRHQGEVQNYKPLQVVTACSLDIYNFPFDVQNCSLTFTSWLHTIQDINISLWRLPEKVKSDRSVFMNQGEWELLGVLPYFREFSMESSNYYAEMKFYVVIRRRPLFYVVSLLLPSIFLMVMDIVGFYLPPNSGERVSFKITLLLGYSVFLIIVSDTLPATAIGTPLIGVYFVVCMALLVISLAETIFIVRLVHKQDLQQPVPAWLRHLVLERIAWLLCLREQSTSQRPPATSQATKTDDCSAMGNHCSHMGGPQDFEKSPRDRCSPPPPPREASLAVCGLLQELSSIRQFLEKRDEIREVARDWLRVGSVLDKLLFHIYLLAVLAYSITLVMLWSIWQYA
T4 sequence (P22770+P23979 fused P22770:T225I/P22770:M226I): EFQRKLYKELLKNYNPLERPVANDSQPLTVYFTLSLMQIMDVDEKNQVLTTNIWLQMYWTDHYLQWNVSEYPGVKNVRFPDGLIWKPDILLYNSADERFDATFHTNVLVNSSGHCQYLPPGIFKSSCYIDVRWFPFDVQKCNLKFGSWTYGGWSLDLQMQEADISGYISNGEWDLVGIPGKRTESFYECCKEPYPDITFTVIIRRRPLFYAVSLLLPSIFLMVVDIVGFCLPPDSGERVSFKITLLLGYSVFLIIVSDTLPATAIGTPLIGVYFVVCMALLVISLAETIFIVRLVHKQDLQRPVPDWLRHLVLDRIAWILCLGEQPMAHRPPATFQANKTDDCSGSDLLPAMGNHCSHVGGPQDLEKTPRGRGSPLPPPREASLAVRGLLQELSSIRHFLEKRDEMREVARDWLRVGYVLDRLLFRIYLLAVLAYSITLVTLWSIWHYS
T3 sequence (P22770+P23979 fused P22770:T225I/P22770:M226I): as above

What is called Ki is the equilibrium dissociation constant of an inhibitor or competing ligand from its target. A lower Ki goes with higher affinity. A word on the EC50: it is the concentration at which the effect is half-maximal. For the molecule `Clc1ccc(C2CC3CCC2N3)cn1` (stereo not drawn) [epibatidine], the “increase in affinity relative to wild type” value with α7 nACh receptor Q114C was 5 fold. For the same molecule, the figures for the Ki at human 5-HT3 receptors [1] and on mouse 5-HT3 receptors [2] were 2510 nM and 12300 nM, respectively. In addition, the “reduction of affinity by mutation” value in the assay on α7 nACh receptors W145F is on record as more than 2200 fold. Also, in the assay on α7 nACh receptors Y184F, the “change of affinity by mutation” value was more than 250 fold. Besides, the “affinity change by mutation” value with α7 nACh receptors W53F is 4 fold. The EC50 at α7 nACh receptors is 340 nM; on α7 nACh receptors W53A, 5800 nM. In addition, in the assay with α7 nACh receptors L116A, the “change in the EC50 by mutation” value was 9 fold.

The term Kd denotes the constant that tells how readily two partners part at equilibrium. The low end stands for a tighter complex, the high end for a looser complex. As to `Clc1ccc(C2CC3CCC2N3)cn1` (stereo not drawn) [[^3H]epibatidine], the dissociation constant (Kd) at α7 nACh receptor N104C, on α7 nACh receptor W145C, at α7 nACh receptor W53C, on α7 nACh receptor Y184C, at α7 nACh receptor Y191C and on α7 nACh receptor Y91C was more than 20 nM throughout. Further, the Kd in assay [3] came to 8 nM; at α7 nACh receptor C186A, 33 nM; at α7 nACh receptor C187A it was 60 nM; on α7 nACh receptor D160C, 8.7 nM; at α7 nACh receptor L106C it was 8.3 nM; on α7 nACh receptor L116C, 5.1 nM. For the same molecule, the Kd came out at 1.5 nM at α7 nACh receptor Q114C; 6.9 nM at α7 nACh receptor Q55C; 2.3 nM at α7 nACh receptor S144C; 7.2 nM at α7 nACh receptor S162C; 9.8 nM on α7 nACh receptor T146C. In addition, the “pKd Mean ± SEM” value turned out to be 8.09 ± 0.06 in assay [4]; 7.48 ± 0.10 on α7 nACh receptor C186A (loop C, HEK 293 cells); 7.22 ± 0.07 at α7 nACh receptor C187A (loop C, HEK 293 cells); 8.06 ± 0.10 at α7 nACh receptor D160C (loop F, HEK 293 cells); 8.08 ± 0.12 on α7 nACh receptor L106C (loop E, HEK 293 cells); 8.29 ± 0.05 on α7 nACh receptor L116C (loop E, HEK 293 cells). Moreover, the “pKd Mean ± SEM” value turned out to be 8.82 ± 0.09 on α7 nACh receptor Q114C (loop E, HEK 293 cells); 8.16 ± 0.09 on α7 nACh receptor Q55C (loop D, HEK 293 cells); 8.64 ± 0.12 on α7 nACh receptor S144C (loop B, HEK 293 cells); 8.14 ± 0.09 at α7 nACh receptor S162C (loop F, HEK 293 cells); 8.01 ± 0.07 on α7 nACh receptor T146C (loop B, HEK 293 cells). The saturable binding entry on human 5-HT3 receptors [5] and on mouse 5-HT3 receptors [6] was “not detected” throughout.
